Data from paper PMC3574204 (Bioorganic & medicinal chemistry, 2013).

Legend:
[1] = molecular target: EGFR (Homo sapiens, UniProt P00533); assay: Phosphotyrosine ELISA cytoblot, EGFR inhibition in A431 cells; conditions: for EGFR inhibition improved, fold compared to the corresponding 2-amino analog: 14 vs 8, 15 vs 9, 17 vs 11
[2] = system: chicken embryo chorioallantoic membrane (CAM); assay: CAM assay of angiogenesis; conditions: in vivo
[3] = Whole animal toxicity assay; type: in vivo
[4] = molecular target: VEGFR-2 (Homo sapiens, UniProt P35968); assay: Phosphotyrosine ELISA cytoblot, VEGFR-2
Chain of VEGFR-2 (P35968 20-1356): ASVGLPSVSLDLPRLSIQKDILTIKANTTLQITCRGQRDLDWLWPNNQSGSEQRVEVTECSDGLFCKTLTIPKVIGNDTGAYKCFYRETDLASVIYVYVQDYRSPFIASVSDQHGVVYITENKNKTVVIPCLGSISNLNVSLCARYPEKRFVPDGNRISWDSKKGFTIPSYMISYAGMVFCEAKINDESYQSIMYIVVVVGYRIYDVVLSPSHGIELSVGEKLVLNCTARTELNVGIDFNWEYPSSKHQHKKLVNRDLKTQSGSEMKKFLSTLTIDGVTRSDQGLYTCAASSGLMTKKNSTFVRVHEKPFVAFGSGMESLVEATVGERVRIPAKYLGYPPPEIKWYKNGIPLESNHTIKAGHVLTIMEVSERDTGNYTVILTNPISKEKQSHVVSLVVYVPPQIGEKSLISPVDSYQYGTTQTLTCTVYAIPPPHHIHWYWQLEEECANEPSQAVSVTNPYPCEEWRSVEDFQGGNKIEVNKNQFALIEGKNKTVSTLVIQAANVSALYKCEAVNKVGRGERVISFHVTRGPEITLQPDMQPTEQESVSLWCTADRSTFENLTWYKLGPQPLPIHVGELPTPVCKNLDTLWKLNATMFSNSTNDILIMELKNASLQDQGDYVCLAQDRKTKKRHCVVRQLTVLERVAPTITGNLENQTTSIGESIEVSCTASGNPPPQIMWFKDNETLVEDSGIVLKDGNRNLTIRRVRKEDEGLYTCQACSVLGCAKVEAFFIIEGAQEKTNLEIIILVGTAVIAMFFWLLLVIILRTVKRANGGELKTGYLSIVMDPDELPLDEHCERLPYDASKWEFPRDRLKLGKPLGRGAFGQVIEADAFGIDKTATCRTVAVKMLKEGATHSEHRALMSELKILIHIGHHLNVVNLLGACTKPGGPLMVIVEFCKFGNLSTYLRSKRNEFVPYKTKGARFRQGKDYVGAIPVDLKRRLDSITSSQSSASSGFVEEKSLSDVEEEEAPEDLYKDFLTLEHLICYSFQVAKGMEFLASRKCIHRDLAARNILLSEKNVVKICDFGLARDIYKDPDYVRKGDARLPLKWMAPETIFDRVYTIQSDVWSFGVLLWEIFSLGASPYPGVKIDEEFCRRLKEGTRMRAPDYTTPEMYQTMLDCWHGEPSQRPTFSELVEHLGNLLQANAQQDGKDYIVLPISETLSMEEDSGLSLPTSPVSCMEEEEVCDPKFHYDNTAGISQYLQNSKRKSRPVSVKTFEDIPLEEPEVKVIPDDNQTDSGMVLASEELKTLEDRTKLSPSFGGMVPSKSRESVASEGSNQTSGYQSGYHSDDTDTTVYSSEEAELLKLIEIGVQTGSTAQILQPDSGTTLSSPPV

[5] = system: B16-F10 mouse melanoma tumors; assay: B16-F10 syngeneic tumor model; type: in vivo, athymic NCr nu/nu male mice; conditions: 10 mg/kg IP twice weekly

Chain of EGFR (P00533 25-1210): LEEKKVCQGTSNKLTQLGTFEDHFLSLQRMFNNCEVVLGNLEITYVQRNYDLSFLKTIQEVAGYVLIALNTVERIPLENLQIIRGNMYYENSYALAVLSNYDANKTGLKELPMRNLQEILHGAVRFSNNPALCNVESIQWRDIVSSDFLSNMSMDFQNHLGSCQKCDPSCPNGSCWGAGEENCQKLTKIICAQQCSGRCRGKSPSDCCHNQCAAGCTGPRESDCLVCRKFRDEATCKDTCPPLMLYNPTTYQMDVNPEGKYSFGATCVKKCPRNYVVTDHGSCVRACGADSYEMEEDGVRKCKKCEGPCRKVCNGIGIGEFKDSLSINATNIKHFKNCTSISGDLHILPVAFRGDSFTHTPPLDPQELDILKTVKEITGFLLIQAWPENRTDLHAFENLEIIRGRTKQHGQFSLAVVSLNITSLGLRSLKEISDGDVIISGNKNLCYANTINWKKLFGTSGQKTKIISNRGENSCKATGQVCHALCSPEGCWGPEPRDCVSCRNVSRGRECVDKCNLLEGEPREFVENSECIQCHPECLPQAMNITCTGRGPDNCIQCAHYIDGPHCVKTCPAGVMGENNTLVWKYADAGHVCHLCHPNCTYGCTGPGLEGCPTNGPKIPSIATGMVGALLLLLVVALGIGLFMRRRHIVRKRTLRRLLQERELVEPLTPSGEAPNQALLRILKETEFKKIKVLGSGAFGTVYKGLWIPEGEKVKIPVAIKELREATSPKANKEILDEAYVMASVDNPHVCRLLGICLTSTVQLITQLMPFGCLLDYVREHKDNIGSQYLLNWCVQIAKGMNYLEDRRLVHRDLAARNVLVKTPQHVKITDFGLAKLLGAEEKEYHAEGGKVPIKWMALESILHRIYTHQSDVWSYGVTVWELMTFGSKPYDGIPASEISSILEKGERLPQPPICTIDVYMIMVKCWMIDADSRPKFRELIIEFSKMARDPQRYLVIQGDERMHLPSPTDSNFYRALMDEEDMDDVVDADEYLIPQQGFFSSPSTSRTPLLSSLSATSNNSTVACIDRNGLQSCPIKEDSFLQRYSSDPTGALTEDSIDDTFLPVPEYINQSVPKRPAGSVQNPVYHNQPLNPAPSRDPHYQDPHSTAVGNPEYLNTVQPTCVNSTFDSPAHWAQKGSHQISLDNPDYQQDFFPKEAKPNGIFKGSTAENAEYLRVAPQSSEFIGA

## CC(C)(C)C(=O)Nc1nc(Nc2ccc(F)c(C(F)(F)F)c2)c2cc(CCc3ccccn3)[nH]c2n1 [Compound 18, N-{4-[(3-trifluoromethyl,4-fluorophenyl)amino]-6-(2-pyridin-2-yl-ethyl)-7H-pyrrolo[2,3-d]pyrimidin-2-yl}-2,2-dimethylpropanamide]
[1]
  EGFR inhibition, fold less active than 12: 1.7 fold

## CC(C)(C)C(=O)Nc1nc(Nc2ccc(F)c(Cl)c2)c2cc(CCc3ccccn3)[nH]c2n1 [Compound 15, N-{4-[(3-chloro,4-fluorophenyl)amino]-6-(2-pyridin-2-yl-ethyl)-7H-pyrrolo[2,3-d]pyrimidin-2-yl}-2,2-dimethylpropanamide]
[1]
  EGFR inhibition improved, fold compared to the corresponding 2-amino analog: 6.5 fold

## Nc1nc(Nc2ccc(F)c(Br)c2)c2cc(CCc3ccccn3)[nH]c2n1 [Compound 8, N^4-(3-bromo,4-fluorophenyl)-6-(2-pyridin-2-yl-ethyl)-7H-pyrrolo[2,3-d]pyrimidine-2,4-diamine]
[2]
  CAM angiogenesis assay, fold better than semaxanib (27): 1.2 fold
[3]; 7.5 or 10 mg/kg twice weekly, compared to untreated
  weight loss: no weight loss
[3]; 20, 17, and 15 mg/kg twice weekly, 6 week time point
  weight loss: significant
[4]
  VEGFR-2 inhibition, fold improvement in activity compared to 7: 2 fold

## CN(Cc1cnc2nc(N)nc(N)c2n1)c1ccc(C(=O)N[C@@H](CCC(=O)O)C(=O)O)cc1 [MTX, methotrexate]
[5]
  B16-F10 primary tumor growth: slightly better at inhibiting primary tumor growth as compared to 8
[5]; compared to solvent treated animals
  decrease in vascular density of B16-F10 tumors: statistically significant
[5]; compared to untreated animals
  tumor volume: significantly less increase in tumor volume

## CC(C)(C)C(=O)Nc1nc(Nc2ccc(F)c(Br)c2)c2cc(CCc3ccccn3)[nH]c2n1 [Compound 14, N-{4-[(3-bromo,4-fluorophenyl)amino]-6-(2-pyridin-2-yl-ethyl)-7H-pyrrolo[2,3-d]pyrimidin-2-yl}the-2,2-dimethylpropanamide]
[1]
  EGFR inhibition improved, fold compared to the corresponding 2-amino analog: 16 fold

## C#Cc1cccc(Nc2nc(NC(=O)C(C)(C)C)nc3[nH]c(CCc4ccccn4)cc23)c1 [Compound 16, N-{4-[(3-ethynylphenyl)amino]-6-(2-pyridin-2-yl-ethyl)-7H-pyrrolo[2,3-d]pyrimidin-2-yl}-2,2-dimethylpropanamide]
[1]
  EGFR inhibitory assay, result in words: inactive

## CC(C)(C)C(=O)Nc1nc(Nc2cccc(C(F)(F)F)c2)c2cc(CCc3ccccn3)[nH]c2n1 [Compound 17, N-{4-[(3-trifluoromethylphenyl)amino]-6-(2-pyridin-2-yl-ethyl)-7H-pyrrolo[2,3-d]pyrimidin-2-yl}-2,2-dimethylpropanamide]
[1]
  EGFR inhibition improved, fold compared to the corresponding 2-amino analog: 1.4 fold
